Broadly, the IC50 is the concentration needed to halve the response being measured. A word on the EC50: it is the concentration giving half of the maximal effect. Read a high EC50 as a less potent agent.

Assay [1] has as its target T1, purified recombinant human GAC (GLS1) (Homo sapiens, UniProt O94925).
T1 sequence (O94925 55-598 isoform O94925-3 limits assumed): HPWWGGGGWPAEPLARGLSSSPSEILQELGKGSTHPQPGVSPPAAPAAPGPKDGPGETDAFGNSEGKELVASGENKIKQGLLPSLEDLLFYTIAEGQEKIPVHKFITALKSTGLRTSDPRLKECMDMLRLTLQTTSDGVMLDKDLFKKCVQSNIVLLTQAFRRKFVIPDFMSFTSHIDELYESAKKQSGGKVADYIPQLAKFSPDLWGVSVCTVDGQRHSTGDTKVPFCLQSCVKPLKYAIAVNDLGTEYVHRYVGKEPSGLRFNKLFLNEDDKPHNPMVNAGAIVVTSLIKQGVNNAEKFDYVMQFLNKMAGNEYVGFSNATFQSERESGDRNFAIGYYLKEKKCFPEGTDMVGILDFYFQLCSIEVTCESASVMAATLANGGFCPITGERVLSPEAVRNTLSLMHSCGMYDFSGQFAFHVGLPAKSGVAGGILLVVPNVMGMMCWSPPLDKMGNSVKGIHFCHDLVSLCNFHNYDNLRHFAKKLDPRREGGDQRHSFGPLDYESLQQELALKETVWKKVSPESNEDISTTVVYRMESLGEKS
The experiment in a line: GLS1 Enzymatic Activity Assay (dual-coupled enzymatic assay). The assay is classed as biochemical. The procedure, abridged:
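In this coupled fluorometric format, phosphate-activated GAC (2 nM, 50 mM phosphate) is pre-exposed to compound for 10 min before 1 mM glutamine addition. Product is tracked as resorufin (530/590 nm) over time or at 20 min, and potency is derived by logistic fitting.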

For another assay, the system named is A549 cells. The experiment in a line: Proliferation Assay (A549 cell viability, Cell Titer Fluor). Format: cell-based. As to conditions: Homo sapiens, 72 hours. In a few lines:
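Compound was added to A549 cells (1000/well, pre-grown 24 h in RPMI 1640 plus 10% dialyzed FBS) at 0.5% DMSO and left 72 h under 37 °C, 5% CO2, ambient O2. Live-cell fluorescence (Cell Titer Fluor) gave the EC50.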

Take `Cc1c(C2CC2)[nH]c2nnc(CCCCn3cc(C(=O)NCc4ccccn4)nn3)cc12` [Example 109, 1-(4-(6-cyclopropyl-5-methyl-7H-pyrrolo[2,3-c]pyridazin-3-yl)butyl)-N-(pyridin-2-ylmethyl)-1H-1,2,3-triazole-4-carboxamide]: the IC50 in assay [1] fell in the range of 100 to 500 nM. Also, the EC50 in the assay on A549 cells is 500 to 5000 nM.

On to `CC(C)Cc1c(C2CC2)[nH]c2nnc(CCCCn3cc(C(=O)NCc4ccccn4)nn3)cc12` [Example 110, 1-{4-[6-cyclopropyl-5-(2-methylpropyl)-7H-pyrrolo[2,3-c]pyridazin-3-yl]butyl}-N-(pyridin-2-ylmethyl)-1H-1,2,3-triazole-4-carboxamide], for which the IC50 in assay [1] is below 100 nM. Also, the EC50 with A549 cells fell in the range of 100 to 500 nM.

As to `CC(C)(C)OC(=O)N1CC(c2cc3cc(CCCCn4cc(C(=O)NCc5cc(OC(F)(F)F)ccc5F)nn4)nnc3[nH]2)C1` [Example 111, tert-butyl 3-(3-(4-(4-((2-fluoro-5-(trifluoromethoxy)benzyl)carbamoyl)-1H-1,2,3-triazol-1-yl)butyl)-7H-pyrrolo[2,3-c]pyridazin-6-yl)azetidine-1-carboxylate], the IC50 in assay [1] is below 100 nM. This compound also displayed an EC50 with A549 cells below 100 nM.

Turning to `Cc1ccc(CNC(=O)c2cn(CCCCc3cc4c(C#N)c(C5CC5)[nH]c4nn3)nn2)cn1` [Example 112, 1-(4-{5-cyano-6-cyclopropyl-7H-pyrrolo[2,3-c]pyridazin-3-yl}butyl)-N-[(6-methylpyridin-3-yl)methyl]-1H-1,2,3-triazole-4-carboxamide], the IC50 in assay [1] is below 100 nM. Besides, the EC50 in the assay with A549 cells lay within 500 to 5000 nM.

`O=C(NCc1ccccn1)c1cn(CCCCc2cc3c(-c4ccncc4)c(C4CC4)[nH]c3nn2)nn1` [Example 113, 1-{4-[6-cyclopropyl-5-(pyridin-4-yl)-7H-pyrrolo[2,3-c]pyridazin-3-yl]butyl}-N-(pyridin-2-ylmethyl)-1H-1,2,3-triazole-4-carboxamide]: the 50% inhibitory concentration (IC50) in assay [1] was below 100 nM. Moreover, in the assay with A549 cells, the EC50 is 500 to 5000 nM.

Take `O=C(NCc1ccccn1)c1cn(CCCCc2cc3c(Cc4ccc(Cl)nc4)c(C4CC4)[nH]c3nn2)nn1` [Example 114, 1-(4-(5-((6-chloropyridin-3-yl)methyl)-6-cyclopropyl-7H-pyrrolo[2,3-c]pyridazin-3-yl)butyl)-N-(pyridin-2-ylmethyl)-1H-1,2,3-triazole-4-carboxamide 2,2,2-trifluoroacetate]: the IC50 in assay [1] is below 100 nM. The same compound registered an EC50 in the assay on A549 cells of 500 to 5000 nM.

Take `CCOC(=O)c1nnc(CCCCc2cc3cc(C4CC4)[nH]c3nn2)s1` [Example 115, ethyl 5-(4-{6-cyclopropyl-7H-pyrrolo[2,3-c]pyridazin-3-yl}butyl)-1,3,4-thiadiazole-2-carboxylate]: the IC50 in assay [1] lay within 100 to 500 nM. Also, in the assay with A549 cells, the EC50 fell in the range of 500 to 5000 nM.

Turning to `O=C(NCc1ccccn1)c1cn(CCCCc2cc3c(-c4cccc(Cl)c4)c(C4CC4)[nH]c3nn2)nn1` [Example 116, 1-{4-[5-(3-chlorophenyl)-6-cyclopropyl-7H-pyrrolo[2,3-c]pyridazin-3-yl]butyl}-N-(pyridin-2-ylmethyl)-1H-1,2,3-triazole-4-carboxamide], in assay [1], the IC50 was below 100 nM. The compound further registered an EC50 with A549 cells of 500 to 5000 nM.

As for `O=C(NCc1ccccn1)c1cn(CCCCc2cc3c(-c4ccc(Cl)cc4)c(C4CC4)[nH]c3nn2)nn1` [Example 117, 1-{4-[5-(4-chlorophenyl)-6-cyclopropyl-7H-pyrrolo[2,3-c]pyridazin-3-yl]butyl}-N-(pyridin-2-ylmethyl)-1H-1,2,3-triazole-4-carboxamide], the IC50 in assay [1] is below 100 nM. The compound further registered an EC50 in the assay with A549 cells of 100 to 500 nM.

On to `O=C(NCc1cc(OC(F)(F)F)ccc1F)c1cn(CCCCc2cc3cc(C4CNC4)[nH]c3nn2)nn1` [Example 118, 1-{4-[6-(azetidin-3-yl)-7H-pyrrolo[2,3-c]pyridazin-3-yl]butyl}-N-{[2-fluoro-5-(trifluoromethoxy)phenyl]methyl}-1H-1,2,3-triazole-4-carboxamide], for which, in assay [1], the IC50 is below 100 nM. For the same compound, in the assay on A549 cells, the EC50 is 500 to 5000 nM.

For the compound `CC(=O)N1CC(c2cc3cc(CCCCn4cc(C(=O)NCc5cc(OC(F)(F)F)ccc5F)nn4)nnc3[nH]2)C1` [Example 119, 1-{4-[6-(1-acetylazetidin-3-yl)-7H-pyrrolo[2,3-c]pyridazin-3-yl]butyl}-N-{[2-fluoro-5-(trifluoromethoxy)phenyl]methyl}-1H-1,2,3-triazole-4-carboxamide], the IC50 in assay [1] was below 100 nM. The compound further gave an EC50 with A549 cells of 500 to 5000 nM.

Take `O=C(NCc1ccccn1)c1cn(CCCCc2cc3c(-c4ccccc4F)c(C4CC4)[nH]c3nn2)nn1` [Example 120, 1-{4-[6-cyclopropyl-5-(2-fluorophenyl)-7H-pyrrolo[2,3-c]pyridazin-3-yl]butyl}-N-(pyridin-2-ylmethyl)-1H-1,2,3-triazole-4-carboxamide]: in assay [1], the IC50 is below 100 nM. The EC50 in the assay on A549 cells was 100 to 500 nM.

Regarding `COc1cccc(-c2c(C3CC3)[nH]c3nnc(CCCCn4cc(C(=O)NCc5ccccn5)nn4)cc23)c1` [Example 121, 1-{4-[6-cyclopropyl-5-(3-methoxyphenyl)-7H-pyrrolo[2,3-c]pyridazin-3-yl]butyl)-N-(pyridin-2-ylmethyl)-1H-1,2,3-triazole-4-carboxamide], the IC50 in assay [1] is below 100 nM. In the assay on A549 cells, this compound displayed an EC50 of 100 to 500 nM.

On to `Cc1ccc(CNC(=O)c2cn(CCCCc3cc4c(-c5ccccc5F)c(C5CC5)[nH]c4nn3)nn2)cn1` [Example 122, 1-{4-[6-cyclopropyl-5-(2-fluorophenyl)-7H-pyrrolo[2,3-c]pyridazin-3-yl]butyl}-N-[(6-methylpyridin-3-yl)methyl]-1H-1,2,3-triazole-4-carboxamide], for which the IC50 in assay [1] was below 100 nM. This compound also returned an EC50 in the assay with A549 cells below 100 nM.

In the case of `O=C(NCc1ccccn1)c1cn(CCCCc2cc3c(-c4ccc(C(F)(F)F)cc4)c(C4CC4)[nH]c3nn2)nn1` [Example 123, 1-(4-{6-cyclopropyl-5-[4-(trifluoromethyl)phenyl]-7H-pyrrolo[2,3-c]pyridazin-3-yl}butyl)-N-(pyridin-2-ylmethyl)-1H-1,2,3-triazole-4-carboxamide], in assay [1], the IC50 is below 100 nM. The same compound had an EC50 in the assay on A549 cells of 100 to 500 nM.

On to `N#Cc1ccc(-c2c(C3CC3)[nH]c3nnc(CCCCn4cc(C(=O)NCc5ccccn5)nn4)cc23)cc1` [Example 124, 1-{4-[5-(4-cyanophenyl)-6-cyclopropyl-7H-pyrrolo[2,3-c]pyridazin-3-yl]butyl}-N-(pyridin-2-ylmethyl)-1H-1,2,3-triazole-4-carboxamide], for which the IC50 in assay [1] is below 100 nM. This compound also had an EC50 with A549 cells of 500 to 5000 nM.

Regarding `O=C(NCc1ccccn1)c1cn(CCCCc2cc3c(-c4ccc(F)cc4)c(C4CC4)[nH]c3nn2)nn1` [Example 125, 1-{4-[6-cyclopropyl-5-(4-fluorophenyl)-7H-pyrrolo[2,3-c]pyridazin-3-yl]butyl}-N-(pyridin-2-ylmethyl)-1H-1,2,3-triazole-4-carboxamide], the IC50 in assay [1] is below 100 nM. Further, the EC50 in the assay with A549 cells is 100 to 500 nM.

Consider `O=C(NCc1ccccn1)c1cn(CCCCc2cc3c(Cc4ccccn4)c(C4CC4)[nH]c3nn2)nn1` [Example 126, 1-{4-[6-cyclopropyl-5-(pyridin-2-ylmethyl)-7H-pyrrolo[2,3-c]pyridazin-3-yl]butyl}-N-(pyridin-2-ylmethyl)-1H-1,2,3-triazole-4-carboxamide], for which, in assay [1], the IC50 was 100 to 500 nM. Further, in the assay with A549 cells, the EC50 is 500 to 5000 nM.

On to `O=C(NCc1cc(OC(F)(F)F)ccc1F)c1cn(CCCCc2cc3c(Cc4ccccn4)c(C4CC4)[nH]c3nn2)nn1` [Example 127, 1-{4-[6-cyclopropyl-5-(pyridin-2-ylmethyl)-7H-pyrrolo[2,3-c]pyridazin-3-yl]butyl}-N-{[2-fluoro-5-(trifluoromethoxy)phenyl]methyl}-1H-1,2,3-triazole-4-carboxamide], for which, in assay [1], the IC50 is below 100 nM. The EC50 with A549 cells was in the range of 100 to 500 nM.

Take `O=C(NCc1cc(OC(F)(F)F)ccc1F)c1cn(CCCCc2cc3c(-c4ccncc4)c(C4CC4)[nH]c3nn2)nn1` [Example 128, 1-{4-[6-cyclopropyl-5-(pyridin-4-yl)-7H-pyrrolo[2,3-c]pyridazin-3-yl]butyl)-N-{[2-fluoro-5-(trifluoromethoxy)phenyl]methyl}-1H-1,2,3-triazole-4-carboxamide]: the IC50 in assay [1] is below 100 nM. Besides, the EC50 in the assay with A549 cells was below 100 nM.

Regarding `O=C(NCc1ccccn1)c1cn(CCCCc2cc3c(-c4cncnc4)c(C4CC4)[nH]c3nn2)nn1` [Example 129, 1-(4-(6-cyclopropyl-5-(pyrimidin-5-yl)-7H-pyrrolo[2,3-c]pyridazin-3-yl)butyl)-N-(pyridin-2-ylmethyl)-1H-1,2,3-triazole-4-carboxamide], the IC50 in assay [1] lay in the range of 100 to 500 nM. In addition, the EC50 in the assay with A549 cells was 500 to 5000 nM.

Take `CS(=O)(=O)N1CC(c2cc3cc(CCCCn4cc(C(=O)NCc5cc(OC(F)(F)F)ccc5F)nn4)nnc3[nH]2)C1` [Example 130, N-{[2-fluoro-5-(trifluoromethoxy)phenyl]methyl}-1-{4-[6-(1-methanesulfonylazetidin-3-yl)-7H-pyrrolo[2,3-c]pyridazin-3-yl]butyl}-1H-1,2,3-triazole-4-carboxamide]: in assay [1], the IC50 is below 100 nM. This compound also had a concentration giving a half-maximal response (EC50) in the assay on A549 cells of 100 to 500 nM.

The record behind these values is patent publication US20160002248A1, “GLS1 INHIBITORS FOR TREATING DISEASE” (Board of Regents, The University of Texas System, priority 2014, published 2016).
